Calls of active or inactive are those of the source. No cut-off for these calls is given here.
Tests used:
[1] = Half life in rat liver microsomes; format: ADME
[2] = target: T1, Orexin receptor type 2 (Homo sapiens, UniProt O43614); assay: Displacement of [3H]EMPA from human orexin receptor-2 expressed in HEK293 cells after 90 mins by scintillation counting; format: cell-based
T1 sequence (O43614 whole entry): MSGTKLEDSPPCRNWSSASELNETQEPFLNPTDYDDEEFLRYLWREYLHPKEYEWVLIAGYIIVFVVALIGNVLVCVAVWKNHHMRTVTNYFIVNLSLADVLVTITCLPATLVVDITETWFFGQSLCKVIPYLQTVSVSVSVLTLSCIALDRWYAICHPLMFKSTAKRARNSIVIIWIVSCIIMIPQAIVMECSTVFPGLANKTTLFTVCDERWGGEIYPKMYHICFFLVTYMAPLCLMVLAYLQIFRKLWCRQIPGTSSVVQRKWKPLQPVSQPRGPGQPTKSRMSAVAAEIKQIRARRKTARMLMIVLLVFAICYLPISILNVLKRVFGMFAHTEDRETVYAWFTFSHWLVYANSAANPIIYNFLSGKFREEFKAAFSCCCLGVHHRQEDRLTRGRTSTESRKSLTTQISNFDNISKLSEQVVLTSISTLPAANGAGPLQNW

[3] = Ratio of drug level in brain to plasma in Sprague-Dawley rat at 1 mg/kg, iv after 0.5 hrs; format: ADME, organism-based; conditions: read-out: BPR
[4] = Clearance in Sprague-Dawley rat at 1 mg/kg, iv; format: ADME, organism-based; conditions: in vivo
[5] = Half life in Sprague-Dawley rat at 2 mg/kg, po; format: ADME, organism-based; conditions: in vivo
[6] = target: T2, Orexin/Hypocretin receptor type 1 (Homo sapiens, UniProt O43613); assay: Displacement of [3H]-4-(2,6-Difluoro-4-methoxybenzyl)-2-(5,6-dimethoxypyridin-3-yl)-2H-1,2,4-benzothiadiazin-3(4H)-one 1,1-dioxide from orexin receptor-1 (unknown origin) after 90 mins
T2 sequence (O43613 whole entry): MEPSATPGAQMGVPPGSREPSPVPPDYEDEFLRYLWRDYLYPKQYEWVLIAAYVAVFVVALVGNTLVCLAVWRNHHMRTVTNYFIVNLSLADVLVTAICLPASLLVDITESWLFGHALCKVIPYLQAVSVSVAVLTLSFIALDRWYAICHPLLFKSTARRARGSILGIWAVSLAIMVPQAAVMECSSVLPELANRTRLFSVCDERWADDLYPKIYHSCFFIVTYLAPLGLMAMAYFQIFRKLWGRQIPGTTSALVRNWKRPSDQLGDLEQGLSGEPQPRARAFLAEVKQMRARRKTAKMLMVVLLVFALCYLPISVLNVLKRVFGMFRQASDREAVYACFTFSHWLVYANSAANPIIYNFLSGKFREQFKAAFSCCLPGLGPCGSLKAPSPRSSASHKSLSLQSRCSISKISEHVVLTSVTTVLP

[7] = Tmax in Sprague-Dawley rat at 2 mg/kg, po; format: ADME, organism-based; conditions: in vivo
[8] = Oral bioavailability in Sprague-Dawley rat at 2 mg/kg; format: ADME, organism-based; conditions: in vivo
[9] = Ratio of drug level in cerebrospinal fluid to brain in Sprague-Dawley rat at 1 mg/kg, iv after 0.5 hrs; format: ADME, organism-based, CSF/Brain; conditions: in vivo
[10] = test system: Rattus norvegicus; assay: AUC (infinity) in Sprague-Dawley rat at 2 mg/kg, po; format: ADME, organism-based; set-up: dose 2 mg/kg, route oral, time infinity; conditions: in vivo
[11] = Volume of distribution at steady state in Sprague-Dawley rat at 1 mg/kg, iv; format: ADME, organism-based; conditions: in vivo, read-out: Vdss
[12] = test system: Rattus norvegicus; assay: Antiinsomnic activity in CD1 rat assessed as effect on sleep architecture at 30 mg/kg, po administered at 18 hrs at circadian time; format: functional, organism-based
[13] = target: T3, Orexin receptor type 2 (Homo sapiens) (UniProt O43614)
T3 sequence (whole entry): T1 sequence (O43614 whole entry)
Description: Binding affinity to orexin receptor-2 (unknown origin) assessed as dissociation half-life by SPR assay

[14] = Plasma concentration in Sprague-Dawley rat plasma at 1 mg/kg, po after 1 hr; format: ADME, organism-based
[15] = target: T3, Orexin receptor type 2 (Homo sapiens); remark: listed apart in the source
Description: Binding affinity to orexin receptor-2 (unknown origin) assessed as dissociation half-life by Motulsky-Mahan radioligand binding assay

[16] = target: T4, Orexin/Hypocretin receptor type 1 (Homo sapiens) (UniProt O43613)
T4 sequence (whole entry): T2 sequence (O43613 whole entry)

[17] = test system: Rattus norvegicus; assay: Ex-vivo receptor occupancy of orexin receptor-2 Sprague-Dawley rat frontal cortex using [3H]EMPA at 1 mg/kg, po after 1 hr by autoradiography relative to control; format: functional
[18] = Tmax in beagle dog at 2 mg/kg, po; format: ADME, organism-based, Canis lupus familiaris; conditions: in vivo
[19] = Oral bioavailability in beagle dog at 2 mg/kg; format: ADME, organism-based, Canis lupus familiaris; conditions: in vivo
[20] = test system: Canis familiaris; assay: AUC (infinity) in beagle dog at 2 mg/kg, po; format: ADME, organism-based, Canis lupus familiaris; set-up: dose 2 mg/kg, route oral, time infinity; conditions: in vivo
[21] = Clearance in beagle dog at 2 mg/kg, iv; format: ADME, organism-based, Canis lupus familiaris; conditions: in vivo
[22] = Volume of distribution at steady state in beagle dog at 2 mg/kg, iv; format: ADME, organism-based, Canis lupus familiaris; conditions: in vivo, read-out: Vdss
[23] = target: Orexin/Hypocretin receptor type 2 (Homo sapiens) (UniProt O43614)
[24] = Half life in beagle dog at 2 mg/kg, po; format: ADME, organism-based, Canis lupus familiaris; conditions: in vivo

SMILES	half-life [1]	Ki [2]	Ki [6]	further results
COc1cc(F)c(CN2C(=O)N(c3ccc(OC)c(OC)n3)S(=O)(=O)c3ccccc32)c(F)c1	8 min	0.2 nM	–	–
COc1cc(N2C(=O)N(Cc3c(F)cc(F)cc3F)c3ccccc3S2(=O)=O)cc(OC)n1	16 min	1.26 nM	15.8 nM	Kp at 0.5 h [3]: 1.51; clearance [4]: 1.02 L/h/kg; half-life [5]: 198 min; Tmax [7]: 24 min; bioavailability [8]: 36%; Ratio ([9]; BLD = below limit of detection): BLD; AUC [10]: 0.705 µg·h/mL; Vd [11]: 3.9 L/kg
COc1cc(F)c(CN2C(=O)N(c3ccc(OC)c(OC)c3)S(=O)(=O)c3ccccc32)c(Cl)c1	–	0.1 nM	0.398 nM	–
COc1ccc(N2C(=O)N(Cc3c(F)cc(F)cc3OC)c3ccccc3S2(=O)=O)cc1OC	–	6.31 nM	63.1 nM	–
COc1ccc(N2C(=O)N(Cc3c(F)cc(F)cc3F)c3ccccc3S2(=O)=O)cc1OC	–	2 nM	50.1 nM	–
COc1cc(F)c(CN2C(=O)N(c3cnc(OC)c(OC)c3)S(=O)(=O)c3ccccc32)c(F)c1	9 min	0.398 nM	2.51 nM	–
COc1cc(F)c(CN2C(=O)N(c3cc(OC)nc(OC)c3)S(=O)(=O)c3ccccc32)c(F)c1	16 min	0.251 nM	1 nM	–
COc1ccc(N2C(=O)N(Cc3c(F)cc(F)cc3Cl)c3ccccc3S2(=O)=O)cc1OC	–	1 nM	25.1 nM	–
COc1cc(F)c(CN2C(=O)N(c3ccc(OC)c(OC)c3)S(=O)(=O)c3ccccc32)c(F)c1	–	0.501 nM	2 nM	–
Cc1ccc(-n2nccn2)c(C(=O)N2CCN(c3nc4cc(Cl)ccc4o3)CC[C@H]2C)c1 [SUVOREXANT]	–	–	–	Activity [12]: Active; T1/2 [13]: 210 min; concentration at 1 h [14]: 0.022 µg/mL; T1/2 [15]: 79 min; T1/2 [16]: 24 min; Occ [17]: 31%
COc1ccc(N2C(=O)N(Cc3c(F)cc(C)cc3Cl)c3ccccc3S2(=O)=O)cc1OC	–	0.794 nM	6.31 nM	–
COc1cc(N2C(=O)N(Cc3c(F)cc(F)cc3Cl)c3ccccc3S2(=O)=O)cnc1OC	23 min	1.58 nM	39.8 nM	Kp at 0.5 h [3]: 0.79; clearance [4]: 2.04 L/h/kg; half-life [5]: 108 min; Tmax [7]: 48 min; bioavailability [8]: 29%; Ratio [9]: 0.02; AUC [10]: 0.3 µg·h/mL; Vd [11]: 3.5 L/kg
COc1ccc(N2C(=O)N(Cc3ccc(Cl)cc3F)c3ccccc3S2(=O)=O)cc1OC	–	10 nM	63.1 nM	–
COc1cc(N2C(=O)N(Cc3c(F)cc(F)cc3F)c3ccccc3S2(=O)=O)ccn1	23 min	63.1 nM	398 nM	–
COc1ccc(-n2c(=O)c3ccccc3n(Cc3ccccc3Cl)c2=O)cc1OC	–	> 10000 nM	> 6310 nM	–
COc1ccc(N2C(=O)N(Cc3ccc4c(c3)OCO4)c3ccccc3S2(=O)=O)cc1OC	–	251 nM	–	–
CNc1cc(N2C(=O)N(Cc3c(F)cc(OC)cc3F)c3ncccc3S2(=O)=O)cnc1OC	7 min	0.631 nM	1.26 nM	–
COc1ccc(N2C(=O)N(Cc3ccccc3F)c3ccccc3S2(=O)=O)cc1OC	–	6.31 nM	316 nM	–
COc1ccc(N2C(=O)N(Cc3ccccc3)c3ccccc3S2(=O)=O)cc1OC	–	79.4 nM	2000 nM	–
COc1ccc(N2C(=O)N(Cc3c(F)cccc3Cl)c3ccccc3S2(=O)=O)cc1OC	–	0.794 nM	7.94 nM	–
COc1ccc(N2C(=O)N(Cc3c(F)cc(F)cc3F)c3ncccc3S2(=O)=O)nc1OC	16 min	1.58 nM	25.1 nM	Kp at 0.5 h [3]: 0.84; clearance [4]: 1.74 L/h/kg; half-life [5]: 78 min; Tmax [7]: 30 min; bioavailability [8]: 34%; Ratio [9]: 0.01; AUC [10]: 0.401 µg·h/mL; Vd [11]: 2.3 L/kg
COc1ccc(N2C(=O)N(Cc3ccc(F)cc3Cl)c3ccccc3S2(=O)=O)cc1OC	–	25.1 nM	> 2510 nM	–
COc1cc(N2C(=O)N(Cc3c(F)cc(F)cc3F)c3ccccc3S2(=O)=O)cnc1OC	28 min	5.01 nM	12.6 nM	Tmax [18]: 24 min; bioavailability [19]: 100%; AUC [20]: 6.96 µg·h/mL; clearance [21]: 0.3 L/h/kg; Kp at 0.5 h [3]: 0.77; Vd [22]: 3.6 L/kg; clearance [4]: 1.08 L/h/kg; half-life [5]: 96 min; T1/2 [15]: 3 min; Tmax [7]: 90 min; bioavailability [8]: 29%; Ratio [9]: 0.01; AUC [10]: 0.558 µg·h/mL; T1/2 [23]: 4.3 min; Vd [11]: 2.2 L/kg; half-life [24]: 636 min
